Experimental data from ChEMBL document CHEMBL4699634, “Series of Novel and Highly Potent Cyclic Peptide PCSK9 Inhibitors Derived from an mRNA Display Screen and Optimized via Structure-Based Design” (J Med Chem, 2020).
Numbered stars: 1 amine (or outer) side, 2 acyl side, 3 side chain; on linkers, the order of the positions; unused ones are H or OH. Bridge positions count the residues as written; N and C are the ends. Square brackets hold non-standard residues; d marks the D form. Peptide text beside a SMILES is read from it. Trp(5-F) = N[C@@H](Cc1c[nH]c2ccc(F)cc12)C(=O)O; X3 = O=C(CCSCc1cc(F)cc(CSCCN[*:1])c1)[*:2]; Lys(Me3) = C[N+](C)(C)CCCC[C@H](N)C(=O)O; X1 = O=C(CCSCc1cccc(CSCCN[*:1])c1)[*:2]; mXylylene = c1cc(C[*:1])cc(C[*:2])c1; αMeP = C[C@@]1(C(=O)O)CCCN1; Mpa = O=C(O)CCS

What was measured:
PCSK9/LDLR = PCSK9/LDLR (Homo sapiens, UniProt Q8NBP7); test: Inhibition of avi-tagged-biotinylated human PCSK9 interaction with His-tagged human LDLR EGFa domain by LANCE Ulight Streptavidin based TR-FRET assay; type: protein assay
[1] = AUC (0 to infinity) in C57BL/6 mouse at 1 mg/kg, iv by LC-MS/MS analysis; type: ADME, organism-based; set-up: route intravenous, time infinity, dose 1 mg/kg; details: C57BL/6, mouse, in vivo
[2] = AUC (0 to X) in C57BL/6 mouse at 1 mg/kg, iv by LC-MS/MS analysis; type: ADME, organism-based; set-up: dose 1 mg/kg; details: in vivo
[3] = Clearance in C57BL/6 mouse at 1 mg/kg, iv by LC-MS/MS analysis; type: ADME, organism-based; details: in vivo
[4] = Volume of distribution at steady state in C57BL/6 mouse at 1 mg/kg, iv by LC-MS/MS analysis; type: ADME, organism-based; details: in vivo, read-out: Vdss
[5] = Half life in C57BL/6 mouse at 1 mg/kg, iv by LC-MS/MS analysis; type: ADME, organism-based; details: in vivo
[6] = Protein binding in mouse plasma at 2.5 uM measured after 4 hrs by equilibrium dialysis based LC-MS/MS analysis; type: ADME, cell-free; details: read-out: PPB (converted)
Chymotrypsinogen A = Chymotrypsinogen A (Bos taurus, UniProt P00766); test: Enzymatic stability assessed as bovine pancreatic alpha-chymotrypsin-mediated compound hydrolysis by measuring parent compound remaining at 100 uM incubated for 1 hr by LC-MS/MS analysis; type: ADME; details: cattle, read-out: Stabilty
[7] = biological target: Chymotrypsin-like elastase family member 1 (Sus scrofa, UniProt P00772); test: Enzymatic stability assessed as porcine type 4 pancreatic elastase-mediated compound hydrolysis by measuring parent compound remaining at 100 uM incubated for 1 hr by LC-MS/MS analysis; type: ADME; details: pig, read-out: Stabilty
[8] = Enzymatic stability assessed as porcine pepsin-mediated compound hydrolysis by measuring parent compound remaining at 100 uM incubated for 1 hr by LC-MS/MS analysis; type: ADME, Sus scrofa; details: pig, read-out: Stabilty
[9] = Enzymatic stability assessed as bovine pancreatic trypsin-mediated compound hydrolysis by measuring parent compound remaining at 100 uM incubated for 1 hr by LC-MS/MS analysis; type: ADME, Bos taurus; details: cattle, read-out: Stabilty
[10] = Half life in C57BL/6 mouse whole blood at 100 uM by LC-MS/MS analysis; type: ADME, tissue-based
[11] = Half life in cynomolgus monkey whole blood at 100 uM by LC-MS/MS analysis; type: ADME, tissue-based, Macaca fascicularis
[12] = biological target: Proprotein convertase subtilisin/kexin type 9 (Homo sapiens, UniProt Q8NBP7); test: Inhibition of AlexaFluor647-tagged cyclic peptide binding to avi-tagged-biotinylated human PCSK9 measured after 2 hrs by Lance Streptavidin Europium based FRET assay
[13] = Induction of mast cell degranulation in Wistar rat isolated peritoneal cells assessed as effect on histamine release measured after 30 mins; type: tissue-based
[14] = Cytotoxicity against Wistar rat isolated peritoneal cells assessed as reduction in cell viability up to 60 uM measured after 30 mins; type: cell-based; details: peritoneal macrophage cell, 0.5 h
[15] = AUC (0 to infinity) in Wistar Han rat at 1 mg/kg, iv by LC-MS/MS analysis; type: ADME, organism-based; set-up: route intravenous, time infinity, dose 1 mg/kg; details: in vivo
[16] = AUC (0 to X) in Wistar Han rat at 1 mg/kg, iv by LC-MS/MS analysis; type: ADME, organism-based; set-up: dose 1 mg/kg; details: in vivo
[17] = Volume of distribution at steady state in Wistar Han rat at 1 mg/kg, iv by LC-MS/MS analysis; type: ADME, organism-based; details: in vivo, read-out: Vdss
[18] = Half life in Wistar Han rat at 1 mg/kg, iv by LC-MS/MS analysis; type: ADME, organism-based; details: in vivo
[19] = Protein binding in Wistar Han rat plasma; type: ADME, cell-free; details: read-out: PPB (converted)
[20] = AUC (0 to infinity) in cynomolgus monkey at 0.5 mg/kg, iv by LC-MS/MS analysis; type: ADME, organism-based, Macaca fascicularis; set-up: time infinity, route intravenous, dose 0.5 mg/kg; details: in vivo
[21] = AUC (0 to X) in cynomolgus monkey at 0.5 mg/kg, iv by LC-MS/MS analysis; type: ADME, organism-based, Macaca fascicularis; set-up: dose 0.5 mg/kg; details: in vivo
[22] = Clearance in cynomolgus monkey at 0.5 mg/kg, iv by LC-MS/MS analysis; type: ADME, organism-based, Macaca fascicularis; details: in vivo
[23] = Volume of distribution at steady state in cynomolgus monkey at 0.5 mg/kg, iv by LC-MS/MS analysis; type: ADME, organism-based, Macaca fascicularis; details: in vivo, read-out: Vdss
[24] = Half life in cynomolgus monkey at 0.5 mg/kg, iv by LC-MS/MS analysis; type: ADME, organism-based, Macaca fascicularis; details: in vivo
[25] = Protein binding in cynomolgus monkey plasma; type: ADME, cell-free, Macaca fascicularis; details: read-out: PPB (converted)
[26] = Clearance in Wistar Han rat at 1 mg/kg, iv by LC-MS/MS analysis; type: ADME, organism-based; details: in vivo
[27] = Rattus norvegicus, Wistar, Mast cell, 0.5 h, read-out: EC50

PCSK9/LDLR, sequence (Q8NBP7 31-152 limits assumed): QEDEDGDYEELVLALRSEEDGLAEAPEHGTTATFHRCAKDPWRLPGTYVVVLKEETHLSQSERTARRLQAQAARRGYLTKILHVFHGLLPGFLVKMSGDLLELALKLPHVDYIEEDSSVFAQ
PCSK9/LDLR, sequence (Q8NBP7 153-692 limits assumed): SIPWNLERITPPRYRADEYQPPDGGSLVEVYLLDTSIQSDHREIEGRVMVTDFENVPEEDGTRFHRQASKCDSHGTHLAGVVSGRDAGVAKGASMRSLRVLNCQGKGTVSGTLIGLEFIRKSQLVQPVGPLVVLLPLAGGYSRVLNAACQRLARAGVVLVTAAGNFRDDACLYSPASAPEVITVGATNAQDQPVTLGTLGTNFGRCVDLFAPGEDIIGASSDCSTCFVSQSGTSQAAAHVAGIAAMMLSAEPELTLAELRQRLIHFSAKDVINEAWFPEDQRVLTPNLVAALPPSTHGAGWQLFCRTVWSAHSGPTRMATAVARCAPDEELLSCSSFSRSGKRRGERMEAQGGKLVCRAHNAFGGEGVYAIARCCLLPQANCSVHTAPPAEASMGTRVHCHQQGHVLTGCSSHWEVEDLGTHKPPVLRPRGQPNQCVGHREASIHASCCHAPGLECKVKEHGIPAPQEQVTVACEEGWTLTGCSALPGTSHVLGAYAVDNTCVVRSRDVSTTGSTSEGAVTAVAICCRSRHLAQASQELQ
PCSK9/LDLR, sequence (P01130 22-860 partner limits assumed): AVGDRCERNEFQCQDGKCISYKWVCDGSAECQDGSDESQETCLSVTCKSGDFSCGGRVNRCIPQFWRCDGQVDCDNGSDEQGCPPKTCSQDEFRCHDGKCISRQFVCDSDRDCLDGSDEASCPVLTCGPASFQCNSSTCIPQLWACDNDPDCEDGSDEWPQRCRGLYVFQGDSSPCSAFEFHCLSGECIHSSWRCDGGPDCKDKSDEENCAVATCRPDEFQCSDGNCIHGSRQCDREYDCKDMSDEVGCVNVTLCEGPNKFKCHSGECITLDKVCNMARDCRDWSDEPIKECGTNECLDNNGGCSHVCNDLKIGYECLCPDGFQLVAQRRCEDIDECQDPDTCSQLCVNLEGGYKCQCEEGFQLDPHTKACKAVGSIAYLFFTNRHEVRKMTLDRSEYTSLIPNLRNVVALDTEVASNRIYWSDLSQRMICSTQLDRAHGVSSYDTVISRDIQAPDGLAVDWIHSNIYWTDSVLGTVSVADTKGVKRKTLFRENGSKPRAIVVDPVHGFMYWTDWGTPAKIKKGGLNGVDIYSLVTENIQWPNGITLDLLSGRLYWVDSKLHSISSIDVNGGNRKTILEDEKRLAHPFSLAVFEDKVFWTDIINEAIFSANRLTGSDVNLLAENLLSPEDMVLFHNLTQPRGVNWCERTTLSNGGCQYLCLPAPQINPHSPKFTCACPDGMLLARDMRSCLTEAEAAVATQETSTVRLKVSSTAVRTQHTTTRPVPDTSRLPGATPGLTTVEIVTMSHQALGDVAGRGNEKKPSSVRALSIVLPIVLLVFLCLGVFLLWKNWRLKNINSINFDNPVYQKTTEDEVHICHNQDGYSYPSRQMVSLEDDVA
Proprotein convertase subtilisin/kexin type 9, sequence (Q8NBP7 31-152 limits assumed): as the sequence (Q8NBP7 31-152 limits assumed) above
Proprotein convertase subtilisin/kexin type 9, sequence (Q8NBP7 153-692 limits assumed): as the sequence (Q8NBP7 153-692 limits assumed) above
Chymotrypsin-like elastase family member 1, sequence (P00772 whole entry): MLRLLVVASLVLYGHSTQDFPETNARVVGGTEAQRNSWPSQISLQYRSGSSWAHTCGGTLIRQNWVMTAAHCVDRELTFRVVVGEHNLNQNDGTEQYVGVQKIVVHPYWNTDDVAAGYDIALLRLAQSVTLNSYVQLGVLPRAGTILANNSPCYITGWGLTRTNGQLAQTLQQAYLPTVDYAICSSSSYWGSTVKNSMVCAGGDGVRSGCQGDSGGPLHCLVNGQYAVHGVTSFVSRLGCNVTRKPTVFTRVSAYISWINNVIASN

Ki (PCSK9/LDLR) [nM] | AUC(0-inf) [1] [µM·h] | AUC [2] [µM·h] | clearance [3] [mL/min/kg] | Vd [4] [L/kg] | half-life [5] [h] | fraction unbound at 4 h, 2.5 µM [6] | remaining at 1 h, 100 µM (Chymotrypsinogen A) [%] | remaining at 1 h, 100 µM [7] [%] | remaining at 1 h, 100 µM [8] [%] | remaining at 1 h, 100 µM [9] [%] | half-life at 100 µM [10] [h] | half-life at 100 µM [11] [h] | Ki [12] [nM] | SMILES | Activity [14] | also measured
23.3 | 0.492 | 0.491 | 24.2 | 0.29 | 0.78 | 0.0077 | 42.7 | 99.1 | 93.7 | 79.5 | 3.1 | > 6 | 4.2 | C[C@H]1NC(=O)[C@H](CCCCN)NC(=O)CCSCc2cccc(c2)CSCCNC(=O)[C@]2(C)CCCN2C(=O)[C@H](Cc2ccc(O)cc2)NC(=O)[C@H](Cc2cnc[nH]2)NC(=O)[C@H](CC(=O)O)NC(=O)[C@H](Cc2c[nH]c3ccc(F)cc23)NC(=O)[C@H](Cc2c[nH]c3ccc(F)cc23)NC1=O |  | 
110 | 0.242 | 0.241 | 51.7 | 0.7 | 1.04 | 0.0498 | 12 | 60.7 | 95 | 1.2 | 1.05 |  |  | NCCCC[C@@H]1NC(=O)CCSCc2cccc(c2)CSC[C@@H](C(N)=O)NC(=O)[C@@H]2CCCN2C(=O)[C@H](Cc2ccc(O)cc2)NC(=O)[C@H](Cc2c[nH]cn2)NC(=O)[C@H](CC(=O)O)NC(=O)[C@H](Cc2c[nH]c3ccc(F)cc23)NC(=O)[C@H](Cc2c[nH]c3ccc(F)cc23)NC(=O)CNC1=O | Non-Toxic | EC50 [13, 27]: 6670 nM
17.6 | 2.51 | 2.49 | 4.62 | 0.1 | 0.25 | 0.001 | 76.4 | 100 | 100 | 94.3 | > 6 |  | 6.3 | CC(C)[C@H]1NC(=O)[C@H](CCCCN)NC(=O)CCSCc2cccc(c2)CSCCNC(=O)[C@]2(C)CCCN2C(=O)[C@H](Cc2ccc(O)cc2)NC(=O)[C@H](Cc2cnc[nH]2)NC(=O)[C@H](CC(=O)O)NC(=O)[C@H](Cc2c[nH]c3ccc(F)cc23)NC(=O)[C@H](Cc2c[nH]c3ccc(F)cc23)NC1=O |  | 
 | 0.841 | 0.84 | 16 | 0.23 | 0.66 | 0.015 | 2.5 | 100 | 98.2 | 100 | > 6 | 1.88 | 1.5 | COc1ccc(C[C@@H]2NC(=O)[C@H]([C@@H](C)O)NC(=O)[C@@H]3CCC(=O)NCc4cccc(c4)C[C@H](NC(=O)[C@@H](C)NC(=O)[C@H](C)NC(=O)CCSCc4cccc(c4)CSCCNC(=O)[C@]4(C)CCCN4C2=O)C(=O)N[C@@H](Cc2c[nH]c4ccc(F)cc24)C(=O)N3)cc1 |  | 
14 | 0.181 | 0.185 | 65.4 | 1.2 | 0.33 | 0.0515 | 10.9 | 52.7 | 94 | 0.9 | 5.19 | > 6 | 4 | C[C@@]12CCCN1C(=O)[C@H](Cc1ccc(O)cc1)NC(=O)[C@H](Cc1cnc[nH]1)NC(=O)[C@H](CC(=O)O)NC(=O)[C@H](Cc1c[nH]c3ccc(F)cc13)NC(=O)[C@H](Cc1c[nH]c3ccc(F)cc13)NC(=O)CNC(=O)[C@H](CCCCN)NC(=O)CCSCc1cccc(c1)CSC[C@@H](C(N)=O)NC2=O ([Mpa]KG[Trp(5-F)][Trp(5-F)]DHY[αMeP]C-NH2; linker 1-10 via mXylylene) | Non-Toxic | EC50 [13, 27]: 6670 nM

SMILES | Ki (PCSK9/LDLR) [nM] | AUC(0-inf) [1] [µM·h] | AUC [2] [µM·h] | clearance [3] [mL/min/kg] | Vd [4] [L/kg] | half-life [5] [h] | fraction unbound at 4 h, 2.5 µM [6] | remaining at 1 h, 100 µM (Chymotrypsinogen A) [%] | remaining at 1 h, 100 µM [7] [%] | remaining at 1 h, 100 µM [8] [%] | remaining at 1 h, 100 µM [9] [%] | half-life at 100 µM [10] [h] | half-life at 100 µM [11] [h] | Ki [12] [nM] | Activity [14] | also measured
COc1ccc(C[C@@H]2NC(=O)[C@H]([C@@H](C)O)NC(=O)[C@@H]3CCCN3C(=O)[C@@H]3Cc4cn(c5ccc(F)cc45)Cc4cn(nn4)-c4cc(cc(c4)CSCCC(=O)N[C@@H](C)C(=O)N[C@H](C)C(=O)N[C@@H](Cc4c[nH]c5ccc(F)cc45)C(=O)N3)CSCCNC(=O)[C@]3(C)CCCN3C2=O)cc1 |  |  |  |  |  |  |  | 91.8 | 96.6 | 98.9 | 99.2 |  | > 6 | 1.36 |  | AUC [15]: 0.0233 µM·h; AUC [16]: 0.0194 µM·h; Vd [17]: 0.48 L/kg; half-life [18]: 0.06 h; fraction unbound [19]: 0.003; AUC(0-inf) [20]: 0.306 µM·h; AUC [21]: 0.304 µM·h; clearance [22]: 20.1 mL/min/kg; Vd [23]: 1.06 L/kg; half-life [24]: 2.84 h; fraction unbound [25]: 0.025
COc1ccc(C[C@@H]2NC(=O)[C@H](Cc3cnc[nH]3)NC(=O)[C@H](CC(=O)O)NC(=O)[C@H](Cc3c[nH]c4ccc(F)cc34)NC(=O)[C@H](Cc3c[nH]c4ccc(F)cc34)NC(=O)[C@@H](C)NC(=O)[C@H](CCCC[N+](C)(C)C)NC(=O)CCSCc3cccc(c3)CSCCNC(=O)[C@]3(C)CCCN3C2=O)cc1 (cyclo(DHY(Me)[αMeP][X1][Lys(Me3)][dA][Trp(5-F)][Trp(5-F)])) |  | 0.933 | 0.896 | 6.2 | 0.45 | 1.16 | 0.007 | 24.2 | 68.2 | 87.5 | 98.4 | > 6 |  | 9.5 | Non-Toxic | EC50 ([13]; mast cell): Non-Toxic; AUC(0-inf) ([15]; Wistar Han): 3.65 µM·h; AUC [16]: 3.65 µM·h; clearance [26]: 3.16 mL/min/kg; Vd [17]: 0.17 L/kg; half-life [18]: 2.46 h; fraction unbound [19]: 0.001
C[C@H]1NC(=O)[C@H](CCCCN)NC(=O)CCSCc2cc(F)cc(c2)CSCCNC(=O)[C@]2(C)CCCN2C(=O)[C@H](Cc2ccc(O)cc2)NC(=O)[C@H](Cc2cnc[nH]2)NC(=O)[C@H](CC(=O)O)NC(=O)[C@H](Cc2c[nH]c3ccc(F)cc23)NC(=O)[C@H](Cc2c[nH]c3ccc(F)cc23)NC1=O (cyclo(DHY[αMeP][X3]K[dA][Trp(5-F)][Trp(5-F)])) |  |  |  |  |  |  |  | 20.1 | 96.5 | 96.6 | 91 | > 6 | > 6 | 1.5 |  | 
